Among the data in US11897880B2, “7,8-dihydrobenzo[e]pyrido[3,4-c]azocine-2,5(3H,6H)-dione derivatives useful as a factor XIa inhibitors” (Janssen Pharmaceutica NV, priority 2021, dated 2024) are IC50 and Ki values, retold here.

Molecules are shown by their SMILES. Where two headings read alike, the source gives them in different places.

One test deals with Factor XIa (Homo sapiens, UniProt P03951). Kind of test: Factor XIa inhibition assay utilizing a fluorophore-quencher pair peptide substrate (FLINT). The following applies: for IC50: read-out: FXIa IC50; for Ki: read-out: FXIa Ki. The class given is biochemical. In outline: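 Enzyme preincubated 30 min at room temperature with compound (11-point 3-fold dilution, top 100 nM, 2% DMSO), then 15 μM 5Fam-KLTRAETV-K5Tamra substrate added. Buffer: 50 mM Tris pH 7.5, 100 mM NaCl, 5 mM CaCl2, 0.1 mg/mL BSA, 0.03% CHAPS. Fluorescence (485/520 nm) read kinetically over 30 min; IC50 from 4-parameter logistic fit.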
Chain of Factor XIa (P03951 388-625 limits assumed): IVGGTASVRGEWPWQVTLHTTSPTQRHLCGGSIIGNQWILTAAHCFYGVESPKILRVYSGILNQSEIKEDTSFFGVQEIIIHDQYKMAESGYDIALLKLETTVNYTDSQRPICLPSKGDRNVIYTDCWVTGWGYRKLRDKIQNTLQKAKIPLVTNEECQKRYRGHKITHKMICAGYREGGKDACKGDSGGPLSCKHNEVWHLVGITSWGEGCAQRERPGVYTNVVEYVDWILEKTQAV
Chain of Factor XIa (P03951 19-387 partner limits assumed): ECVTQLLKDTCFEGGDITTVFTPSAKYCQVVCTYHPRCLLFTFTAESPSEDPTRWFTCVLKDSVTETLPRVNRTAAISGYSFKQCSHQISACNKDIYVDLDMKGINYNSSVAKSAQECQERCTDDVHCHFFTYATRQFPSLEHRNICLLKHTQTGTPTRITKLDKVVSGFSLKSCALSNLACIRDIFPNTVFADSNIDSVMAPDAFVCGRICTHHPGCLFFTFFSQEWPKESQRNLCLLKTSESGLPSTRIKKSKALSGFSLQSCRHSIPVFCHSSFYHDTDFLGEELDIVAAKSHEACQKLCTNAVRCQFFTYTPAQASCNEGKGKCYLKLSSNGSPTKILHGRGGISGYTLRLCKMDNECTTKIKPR

Another test has as its target human plasma kallikrein (Homo sapiens, UniProt P03952). Kind of test: Kallikrein inhibition assay utilizing a quenched AMC peptide substrate (FLINT). Conditions: 30 min preincubation, 50 μM Z-Gly-Pro-Arg-AMC, 2 nM kallikrein. The test is classed as biochemical. In short, it runs like this: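 Human plasma kallikrein (2 nM final) was preincubated 30 min at room temperature with compound (11-point 3-fold dilution, top 1 μM, 2% DMSO) in pH 7.5 Tris buffer with CaCl2, BSA and CHAPS. Z-Gly-Pro-Arg-AMC (50 μM final) fluorescence was read at 340/440 nm every 5 min for 30 min. IC50 came from a 4-parameter logistic fit.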

[1] abbreviates: 30 min preincubation, 5Fam-KLTRAETV-K5Tamra substrate 15 μM final, kinetic reads.
Setting [2] is: cells that print μM themselves in the nM column.
The mark [3] stands for this setting: cells that print μM themselves in the nM column, same assay conditions.

Chain of human plasma kallikrein (P03952 391-638 limits assumed): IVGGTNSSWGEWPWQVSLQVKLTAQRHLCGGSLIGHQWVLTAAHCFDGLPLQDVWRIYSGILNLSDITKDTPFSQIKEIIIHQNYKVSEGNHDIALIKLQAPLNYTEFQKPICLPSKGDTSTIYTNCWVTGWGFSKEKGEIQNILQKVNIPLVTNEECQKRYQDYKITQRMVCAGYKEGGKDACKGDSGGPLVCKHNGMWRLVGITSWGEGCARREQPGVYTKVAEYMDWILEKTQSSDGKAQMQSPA
Chain of human plasma kallikrein (P03952 20-390 partner limits assumed): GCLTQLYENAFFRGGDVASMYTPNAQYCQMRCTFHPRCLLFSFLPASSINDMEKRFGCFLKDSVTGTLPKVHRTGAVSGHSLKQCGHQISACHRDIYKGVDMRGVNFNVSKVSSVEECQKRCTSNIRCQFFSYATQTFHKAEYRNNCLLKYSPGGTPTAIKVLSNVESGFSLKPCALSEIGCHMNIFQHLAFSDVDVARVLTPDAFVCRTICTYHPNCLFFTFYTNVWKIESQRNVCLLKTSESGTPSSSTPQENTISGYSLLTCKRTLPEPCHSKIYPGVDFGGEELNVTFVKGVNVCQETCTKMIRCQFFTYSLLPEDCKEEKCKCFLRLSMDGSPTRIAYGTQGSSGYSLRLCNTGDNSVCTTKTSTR

Usually IC50 stands for the concentration at which inhibition is half-maximal. In general, Ki refers to the equilibrium dissociation constant of an inhibitor or competing ligand from its target. `O=C1NC2(CC2)Cc2ccc(Cl)c(F)c2-c2cc(=O)n([C@@H](CC3CC3)c3ncc(-c4ccncc4)[nH]3)cc21` (single isomer, unassigned) [Compound 67, (S*)-11-chloro-3-(2-cyclopropyl-1-(5-(pyridin-4-yl)-1H-imidazol-2-yl)ethyl)-12-fluoro-3H-spiro[benzo[e]pyrido[3,4-c]azocine-7,1′-cyclopropane]-2,5(6H,8H)-dione]: the results for the IC50 on Factor XIa (setting [1]) and on human plasma kallikrein were 0.0129 µM and 1390 nM, respectively. Also, the Ki at Factor XIa turned out to be 0.0064 µM.
Turning to `Cn1ccc(-c2cnc(C(CC3CC3)n3cc4c(cc3=O)-c3c(ccc(Cl)c3F)CC3(CC3)NC4=O)[nH]2)cc1=O` (single isomer, unassigned) [Compound 68, (R*)-11-chloro-3-(2-cyclopropyl-1-(5-(1-methyl-2-oxo-1,2-dihydropyridin-4-yl)-1H-imidazol-2-yl)ethyl)-12-fluoro-3H-spiro[benzo[e]pyrido[3,4-c]azocine-7,1′-cyclopropane]-2,5(6H,8H)-dione], the Ki on Factor XIa (setting [2]) came out at 1.12 µM. In addition, the values for the IC50 at Factor XIa (setting [3]) and against human plasma kallikrein were 2.24 µM and greater than 10000 nM, respectively.
For `Cn1ccc(-c2cnc([C@H](CC3CC3)n3cc4c(cc3=O)-c3c(ccc(Cl)c3F)CC3(CC3)NC4=O)[nH]2)cc1=O` (single isomer, unassigned) [Compound 69, (S*)-11-chloro-3-(2-cyclopropyl-1-(5-(1-methyl-2-oxo-1,2-dihydropyridin-4-yl)-1H-imidazol-2-yl)ethyl)-12-fluoro-3H-spiro[benzo[e]pyrido[3,4-c]azocine-7,1′-cyclopropane]-2,5(6H,8H)-dione], the figures for the IC50 at Factor XIa (setting [1]) and at human plasma kallikrein were 0.108 µM and 8080 nM, respectively. For the same compound, on Factor XIa, the Ki was 0.0541 µM.
For the compound `O=C1NC2(CC2)Cc2ccc(Cl)c(F)c2-c2cc(=O)n3c(c21)CC[C@H]3c1ncc(-c2ccn3c(Br)cnc3c2)[nH]1` (single isomer, unassigned) [Compound 71, (*S)-12-(5-(3-Bromoimidazo[1,2-a]pyridin-7-yl)-1H-imidazol-2-yl)-7-chloro-8-fluoro-13,14-dihydro-2H-spiro[benzo[5,6]azocino[4,3-g]indolizine-3,1′-cyclopropane]-1,10(4H,12H)-dione], on Factor XIa (setting [2]), the Ki is greater than 5 µM. The IC50 on Factor XIa (setting [3]) was greater than 10 µM; at human plasma kallikrein, greater than 10000 nM.
`O=C1NC2(CC2)Cc2ccc(Cl)c(F)c2-c2cc(=O)n3c(c21)CCC3c1ncc(-c2ccn3c(Br)cnc3c2)[nH]1` (single isomer, unassigned) [Compound 72, (*R)-12-(5-(3-Bromoimidazo[1,2-a]pyridin-7-yl)-1H-imidazol-2-yl)-7-chloro-8-fluoro-13,14-dihydro-2H-spiro[benzo[5,6]azocino[4,3-g]indolizine-3,1′-cyclopropane]-1,10(4H,12H)-dione]: the values for the IC50 on Factor XIa (setting [1]) and against human plasma kallikrein were 0.0267 µM and 3540 nM, respectively. Moreover, the Ki on Factor XIa was 0.0133 µM.
With `Cc1nc2cc(-c3cnc([C@@H]4CCc5c6c(cc(=O)n54)-c4c(ccc(Cl)c4F)CC4(CC4)NC6=O)[nH]3)ccc2s1` (stereo in doubt) [Compound 4, (S*)-7-chloro-8-fluoro-12-(5-(2-methylbenzo[d]thiazol-5-yl)-1H-imidazol-2-yl)-13,14-dihydro-2H-spiro[benzo[5,6]azocino[4,3-g]indolizine-3,1′-cyclopropane]-1,10(4H,12H)-dione], the inhibition constant Ki at Factor XIa (setting [2]) worked out at 1.15 µM. The IC50 on Factor XIa (setting [3]) was 2.29 µM; against human plasma kallikrein, greater than 10000 nM.
As for `Cc1nc2cc(-c3cnc([C@H]4CCc5c6c(cc(=O)n54)-c4c(ccc(Cl)c4F)CC4(CC4)NC6=O)[nH]3)ccc2s1` (stereo in doubt) [Compound 5, (R*)-7-chloro-8-fluoro-12-(5-(2-methylbenzo[d]thiazol-5-yl)-1H-imidazol-2-yl)-13,14-dihydro-2H-spiro[benzo[5,6]azocino[4,3-g]indolizine-3,1′-cyclopropane]-1,10(4H,12H)-dione], the IC50 was 0.0021 µM on Factor XIa (setting [1]) and 60 nM on human plasma kallikrein. In addition, the Ki at Factor XIa was 0.001 µM.
The matching figures for `O=C1NC2(CC2)Cc2ccc(Cl)c(F)c2-c2cc(=O)n3c(c21)CC[C@@H]3c1ncc(-c2ccc3[nH]cnc3c2)[nH]1` (stereo in doubt) [Compound 6, (R*)-12-(5-(1H-benzo[d]imidazol-5-yl)-1H-imidazol-2-yl)-7-chloro-8-fluoro-13,14-dihydro-2H-spiro[benzo[5,6]azocino[4,3-g]indolizine-3,1′-cyclopropane]-1,10(4H,12H)-dione]: 0.0006 µM, 60 nM and 0.0003 µM.
On to `O=C1NC2(CC2)Cc2ccc(Cl)c(F)c2-c2cc(=O)n3c(c21)CC[C@H]3c1ncc(-c2ccn3ccnc3c2)[nH]1` (stereo in doubt) [Compound 7, (S*)-7-chloro-8-fluoro-12-(5-(imidazo[1,2-a]pyridin-7-yl)-1H-imidazol-2-yl)-13,14-dihydro-2H-spiro[benzo[5,6]azocino[4,3-g]indolizine-3,1′-cyclopropane]-1,10(4H,12H)-dione], for which the IC50 at Factor XIa (setting [1]) was 0.0023 µM; on human plasma kallikrein, 420 nM. Besides, the Ki on Factor XIa worked out at 0.0011 µM.
In the case of `O=C1NC2(CC2)Cc2ccc(Cl)c(F)c2-c2cc(=O)n3c(c21)CC[C@@H]3c1ncc(-c2ccn3ccnc3c2)[nH]1` (stereo in doubt) [Compound 8, (R*)-7-chloro-8-fluoro-12-(5-(imidazo[1,2-a]pyridin-7-yl)-1H-imidazol-2-yl)-13,14-dihydro-2H-spiro[benzo[5,6]azocino[4,3-g]indolizine-3,1′-cyclopropane]-1,10(4H,12H)-dione], the IC50 at Factor XIa (setting [1]) worked out at 0.0019 µM; against human plasma kallikrein it was 470 nM. In addition, the Ki on Factor XIa was found to be 0.0009 µM.
In the case of `O=C1NC2(CC2)Cc2ccc(Cl)c(F)c2-c2cc(=O)n3c(c21)CC[C@H]3c1ncc(-c2ccn3cnnc3c2)[nH]1` (stereo in doubt) [Compound 15, (S*)-12-(5-([1,2,4]triazolo[4,3-a]pyridin-7-yl)-1H-imidazol-2-yl)-7-chloro-8-fluoro-13,14-dihydro-2H-spiro[benzo[5,6]azocino[4,3-g]indolizine-3,1′-cyclopropane]-1,10(4H,12H)-dione], the Ki on Factor XIa (setting [2]) stood at 2.91 µM. In addition, the IC50 was 5.82 µM on Factor XIa (setting [3]) and greater than 10000 nM against human plasma kallikrein.
In the case of `O=C1NC2(CC2)Cc2ccc(Cl)c(F)c2-c2cc(=O)n3c(c21)CC[C@@H]3c1ncc(-c2ccn3cnnc3c2)[nH]1` (stereo in doubt) [Compound 18, (R*)-12-(5-([1,2,4]triazolo[4,3-a]pyridin-7-yl)-1H-imidazol-2-yl)-7-chloro-8-fluoro-13,14-dihydro-2H-spiro[benzo[5,6]azocino[4,3-g]indolizine-3,1′-cyclopropane]-1,10(4H,12H)-dione], the half-maximal inhibitory concentration (IC50) at Factor XIa (setting [1]) was 0.0132 µM; on human plasma kallikrein it was 820 nM. On Factor XIa, the Ki is 0.0066 µM.
In the case of `O=C1NC2(CC2)Cc2ccc(Cl)c(F)c2-c2cc(=O)n3c(c21)CC[C@@H]3c1ncc(-c2ccc3[nH]ncc3c2)[nH]1` (stereo in doubt) [Compound 19, (R*)-12-(5-(1H-indazol-5-yl)-1H-imidazol-2-yl)-7-chloro-8-fluoro-13,14-dihydro-2H-spiro[benzo[5,6]azocino[4,3-g]indolizine-3,1′-cyclopropane]-1,10(4H,12H)-dione], the IC50 came to 0.001 µM at Factor XIa (setting [1]) and 20 nM against human plasma kallikrein. For the same compound, the Ki on Factor XIa amounted to 0.0005 µM.
For the compound `O=C1NC2(CC2)Cc2ccc(Cl)c(F)c2-c2cc(=O)n3c(c21)CC[C@@H]3c1ncc(-c2ccc3cncn3c2)[nH]1` (stereo in doubt) [Compound 22, (R*)-7-chloro-8-fluoro-12-(5-(imidazo[1,5-a]pyridin-6-yl)-1H-imidazol-2-yl)-13,14-dihydro-2H-spiro[benzo[5,6]azocino[4,3-g]indolizine-3,1′-cyclopropane]-1,10(4H,12H)-dione], the Ki at Factor XIa (setting [2]) was 2.54 µM. In addition, the IC50 on Factor XIa (setting [3]) was 5.07 µM; on human plasma kallikrein it was greater than 10000 nM.
As to `O=C1NC2(CC2)Cc2ccc(Cl)c(F)c2-c2cc(=O)n3c(c21)CC[C@H]3c1ncc(-c2ccc3cncn3c2)[nH]1` (stereo in doubt) [Compound 23, (S*)-7-chloro-8-fluoro-12-(5-(imidazo[1,5-a]pyridin-6-yl)-1H-imidazol-2-yl)-13,14-dihydro-2H-spiro[benzo[5,6]azocino[4,3-g]indolizine-3,1′-cyclopropane]-1,10(4H,12H)-dione], the IC50 on Factor XIa (setting [1]) is 0.007 µM; on human plasma kallikrein it was 540 nM. In addition, the Ki on Factor XIa was found to be 0.0035 µM.
In the case of `COCCN1C(=O)c2c(cc(=O)n3c2CC[C@@H]3c2ncc(-c3ccc(N)nc3F)[nH]2)-c2c(ccc(Cl)c2F)CC12CC2` (stereo in doubt) [Compound 24, (R*)-12-(5-(6-amino-2-fluoropyridin-3-yl)-1H-imidazol-2-yl)-7-chloro-8-fluoro-2-(2-methoxyethyl)-13,14-dihydro-2H-spiro[benzo[5,6]azocino[4,3-g]indolizine-3,1′-cyclopropane]-1,10(4H,12H)-dione], the values for the IC50 on Factor XIa (setting [1]) and on human plasma kallikrein were greater than 0.01 µM and greater than 10000 nM, respectively. Also, at Factor XIa (setting [2]), the Ki is greater than 5 µM.
